One block for each molecule: values may come before it. Calls of active or inactive are those of the source.
Experiments:
[1] = growth suppression of PTEN-null colon cells, dose response, cell-based, HCT116 PTEN knockout (AID 1047); type: functional;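 also: HCT116 colon tumor cells with PTEN knocked out; cells exposed to compound for 60 hours before readout; potency for loss of cell viability measured by luminescence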
[2] = inhibitors of intracellular T. cruzi replication, confirmation, NIH3T3 host cells, beta-gal luminescence (AID 2044); type: functional, cell-based;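 also: intracellular parasites grown in NIH/3T3 mouse fibroblasts as host cells; luminescent beta-galactosidase reporter signal from transgenic T. cruzi replicating inside host cells; inhibitors lower the luminescence signal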
[3] = target: RNA-editing ligase 1, mitochondrial (Trypanosoma brucei brucei, UniProt P86926); experiment: TbREL1 ligase inhibitors, dose response, biochemical, fluorescence, Trypanosoma brucei (AID 1117295); type: functional
Chain of RNA-editing ligase 1, mitochondrial (P86926 whole entry): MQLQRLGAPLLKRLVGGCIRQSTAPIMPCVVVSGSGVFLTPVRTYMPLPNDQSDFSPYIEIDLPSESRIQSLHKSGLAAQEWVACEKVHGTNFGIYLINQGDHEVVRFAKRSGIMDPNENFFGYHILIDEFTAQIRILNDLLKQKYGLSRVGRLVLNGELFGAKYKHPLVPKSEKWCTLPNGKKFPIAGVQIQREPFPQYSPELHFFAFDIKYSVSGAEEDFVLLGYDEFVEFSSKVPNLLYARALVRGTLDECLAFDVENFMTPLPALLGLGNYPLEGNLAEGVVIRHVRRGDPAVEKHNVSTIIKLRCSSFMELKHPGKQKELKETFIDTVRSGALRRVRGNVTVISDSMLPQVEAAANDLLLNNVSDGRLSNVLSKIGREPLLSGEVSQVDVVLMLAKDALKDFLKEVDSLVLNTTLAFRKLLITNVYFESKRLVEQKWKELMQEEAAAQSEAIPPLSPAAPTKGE

[4] = growth suppression of beta-catenin-knockout colon cells, dose response, cell-based, HCT116, human colon tumor (AID 1045); type: functional;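 also: HCT116 colon tumor cells with beta catenin knocked out; cells exposed to compound for 60 hours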
[5] = target: Neuropeptide Y receptor type 2 (Homo sapiens, UniProt P49146); type: functional, cell-based;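 also: HEK293 cells expressing the receptor and a CNG channel; stimulus was NPY near EC95 followed by isoproterenol to raise cAMP; antagonist potency measured as restoring cAMP signal that NPY suppresses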
Chain of Neuropeptide Y receptor type 2 (P49146 whole entry): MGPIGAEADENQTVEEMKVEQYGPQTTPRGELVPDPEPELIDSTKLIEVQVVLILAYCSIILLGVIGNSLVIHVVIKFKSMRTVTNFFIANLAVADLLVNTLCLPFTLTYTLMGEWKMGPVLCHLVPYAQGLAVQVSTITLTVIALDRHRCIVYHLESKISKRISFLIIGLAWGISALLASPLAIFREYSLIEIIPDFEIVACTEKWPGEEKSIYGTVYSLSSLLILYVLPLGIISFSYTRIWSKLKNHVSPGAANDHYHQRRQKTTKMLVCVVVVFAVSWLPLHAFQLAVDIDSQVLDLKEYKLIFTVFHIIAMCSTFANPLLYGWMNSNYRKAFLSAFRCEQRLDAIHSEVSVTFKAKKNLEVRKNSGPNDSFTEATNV

[6] = target: Neuropeptide Y receptor type 1 (Homo sapiens, UniProt P25929); type: functional;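 also: HEK293 cells with a CNG channel challenged with NPY then isoproterenol; potency as antagonist that reverses NPY suppression of cAMP signal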
Chain of Neuropeptide Y receptor type 1 (P25929 whole entry): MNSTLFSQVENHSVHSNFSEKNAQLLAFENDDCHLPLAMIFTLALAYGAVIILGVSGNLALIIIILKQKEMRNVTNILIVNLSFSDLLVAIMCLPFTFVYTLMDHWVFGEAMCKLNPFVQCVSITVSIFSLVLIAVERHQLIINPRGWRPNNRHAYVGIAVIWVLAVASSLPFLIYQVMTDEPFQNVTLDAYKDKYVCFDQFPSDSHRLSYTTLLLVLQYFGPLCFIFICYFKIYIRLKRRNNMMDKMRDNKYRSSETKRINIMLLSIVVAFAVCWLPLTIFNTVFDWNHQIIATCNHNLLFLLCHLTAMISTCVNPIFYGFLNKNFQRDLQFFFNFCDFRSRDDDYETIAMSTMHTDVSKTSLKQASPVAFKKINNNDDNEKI

[7] = cytotoxicity toward NIH3T3 fibroblasts, dose response, counter-screen, cell-based, ATP luminescence, mouse fibroblasts (AID 2010); type: functional;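 also: cells exposed to compound for about 90 hours before reading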
[8] = Counterscreen for IDE inhibitors: Luminescence-based cell-based high throughput dose response assay to identify compounds that are cytotoxic to HEK cells. [Related pubchem assays: 434962 (Primary screen (IDE inhibitors in singlicate)), 449730 (Counterscreen (Cytotoxicity in triplicate)), 435028 (Confirmation (IDE inhibitors in triplicate)) …; type: functional; details: HEK293
Insulin-degrading enzyme = target: T1, Insulin-degrading enzyme (Homo sapiens, UniProt P14735); experiment: Dose Response: Fluorescence polarization-based cell-based high throughput dose response assay for inhibitors of insulin-degrading enzyme (IDE). [Related pubchem assays: 434962 (Primary screen (IDE inhibitors in singlicate)), 449730 (Counterscreen (Cytotoxicity in triplicate)), 435028 (Confirmation (IDE inhibitors in triplicate)), 434984 (Summary …; type: functional
T1 sequence (P14735 whole entry): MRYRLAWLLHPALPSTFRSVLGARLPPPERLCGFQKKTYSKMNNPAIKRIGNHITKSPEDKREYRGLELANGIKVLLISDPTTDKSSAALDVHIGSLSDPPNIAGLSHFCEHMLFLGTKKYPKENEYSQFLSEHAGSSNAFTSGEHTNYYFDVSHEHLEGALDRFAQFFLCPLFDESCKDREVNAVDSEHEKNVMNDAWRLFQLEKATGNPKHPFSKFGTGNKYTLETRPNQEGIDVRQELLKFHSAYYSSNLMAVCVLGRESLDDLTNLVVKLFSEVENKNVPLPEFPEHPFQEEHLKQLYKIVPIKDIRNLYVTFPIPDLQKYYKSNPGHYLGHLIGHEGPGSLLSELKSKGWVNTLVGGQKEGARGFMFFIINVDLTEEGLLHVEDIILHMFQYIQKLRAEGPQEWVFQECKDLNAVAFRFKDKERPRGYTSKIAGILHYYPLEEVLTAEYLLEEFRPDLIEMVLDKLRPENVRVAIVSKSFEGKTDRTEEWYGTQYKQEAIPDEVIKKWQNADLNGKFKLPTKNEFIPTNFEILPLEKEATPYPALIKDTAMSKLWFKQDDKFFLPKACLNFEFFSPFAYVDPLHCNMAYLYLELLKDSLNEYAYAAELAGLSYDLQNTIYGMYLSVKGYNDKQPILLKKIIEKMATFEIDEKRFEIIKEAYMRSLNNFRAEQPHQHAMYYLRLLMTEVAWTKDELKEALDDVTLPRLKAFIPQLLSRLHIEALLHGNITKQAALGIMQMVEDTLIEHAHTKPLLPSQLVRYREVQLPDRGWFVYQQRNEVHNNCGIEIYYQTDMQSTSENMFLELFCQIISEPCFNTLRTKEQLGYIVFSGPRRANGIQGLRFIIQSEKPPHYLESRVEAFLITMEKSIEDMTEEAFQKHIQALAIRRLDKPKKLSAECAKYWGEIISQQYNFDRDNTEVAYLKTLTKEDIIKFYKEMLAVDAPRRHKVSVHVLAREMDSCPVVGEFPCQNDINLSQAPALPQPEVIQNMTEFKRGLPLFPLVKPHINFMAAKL

Protein skinhead-1 = target: T2, Protein skinhead-1 (Caenorhabditis elegans, UniProt P34707); type: functional
T2 sequence (P34707 whole entry): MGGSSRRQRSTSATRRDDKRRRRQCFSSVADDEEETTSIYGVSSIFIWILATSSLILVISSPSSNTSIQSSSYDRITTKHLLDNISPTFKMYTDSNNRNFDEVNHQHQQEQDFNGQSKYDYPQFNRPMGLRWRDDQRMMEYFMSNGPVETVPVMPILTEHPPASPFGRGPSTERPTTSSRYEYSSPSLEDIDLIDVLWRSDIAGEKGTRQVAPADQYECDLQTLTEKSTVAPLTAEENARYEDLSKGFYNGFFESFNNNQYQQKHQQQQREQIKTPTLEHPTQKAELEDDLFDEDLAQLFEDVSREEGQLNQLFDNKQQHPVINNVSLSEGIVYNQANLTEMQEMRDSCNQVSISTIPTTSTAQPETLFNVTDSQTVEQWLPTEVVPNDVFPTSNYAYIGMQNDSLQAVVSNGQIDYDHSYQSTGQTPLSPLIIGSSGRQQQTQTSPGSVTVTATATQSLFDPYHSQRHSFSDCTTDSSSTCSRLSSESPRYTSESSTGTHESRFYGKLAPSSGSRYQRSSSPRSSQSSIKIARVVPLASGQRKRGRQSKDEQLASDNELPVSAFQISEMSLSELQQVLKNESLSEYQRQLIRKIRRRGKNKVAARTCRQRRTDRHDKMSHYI

[9] = target: T3, Mannose-6-phosphate isomerase (Homo sapiens, UniProt P34949); experiment: human PMI inhibitors, high substrate, primary screen, biochemical, fluorescence intensity, high mannose 6-phosphate (AID 1220)
T3 sequence (P34949 whole entry): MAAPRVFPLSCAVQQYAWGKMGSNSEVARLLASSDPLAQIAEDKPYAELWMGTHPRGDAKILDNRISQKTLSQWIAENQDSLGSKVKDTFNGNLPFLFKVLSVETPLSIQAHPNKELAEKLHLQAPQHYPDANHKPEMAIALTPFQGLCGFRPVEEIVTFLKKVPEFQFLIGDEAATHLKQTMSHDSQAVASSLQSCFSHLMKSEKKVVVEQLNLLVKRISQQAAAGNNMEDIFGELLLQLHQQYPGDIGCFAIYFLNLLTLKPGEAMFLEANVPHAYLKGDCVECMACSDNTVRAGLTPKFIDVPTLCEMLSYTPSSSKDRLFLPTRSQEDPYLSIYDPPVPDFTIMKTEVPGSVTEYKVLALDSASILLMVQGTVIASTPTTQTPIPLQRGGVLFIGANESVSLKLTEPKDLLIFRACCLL

[10] = target: T3, Mannose-6-phosphate isomerase; experiment: inhibitors of human PMI, primary screen, biochemical, fluorescence intensity, coupled assay (AID 1209)
Estrogen receptor beta = Estrogen receptor beta (Homo sapiens, UniProt Q92731); experiment: ERβ–SRC-3 coactivator interaction inhibitors, confirmation, orthogonal assay, biochemical, ELISA, streptavidin-HRP readout (AID 1060)
Chain of Estrogen receptor beta (Q92731 whole entry): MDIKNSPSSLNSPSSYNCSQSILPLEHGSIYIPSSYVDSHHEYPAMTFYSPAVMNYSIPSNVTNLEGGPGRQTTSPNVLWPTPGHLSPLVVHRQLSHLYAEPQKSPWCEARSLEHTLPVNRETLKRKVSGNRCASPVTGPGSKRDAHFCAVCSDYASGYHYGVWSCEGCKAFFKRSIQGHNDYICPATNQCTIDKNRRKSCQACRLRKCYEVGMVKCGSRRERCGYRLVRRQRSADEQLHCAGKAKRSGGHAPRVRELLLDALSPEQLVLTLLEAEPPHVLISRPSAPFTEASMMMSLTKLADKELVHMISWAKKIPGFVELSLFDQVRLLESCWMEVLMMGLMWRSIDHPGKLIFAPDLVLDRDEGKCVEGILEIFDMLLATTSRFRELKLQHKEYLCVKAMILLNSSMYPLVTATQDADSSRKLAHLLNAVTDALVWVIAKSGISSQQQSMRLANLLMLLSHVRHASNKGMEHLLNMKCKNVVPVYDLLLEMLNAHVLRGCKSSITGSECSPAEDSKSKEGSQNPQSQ

Compound: Cc1cc(Cl)c(OCCCNCc2ccccc2)c(Br)c1
EC50 [1]: 21.9 µM (active)
EC50 [2]: 1.86 µM (active)
IC50 [3]: > 96.6 µM (inactive)
EC50 [4]: 16.5 µM (active)
IC50 [5]: 5.15 µM (active)
IC50 [6]: 5.39 µM (active)
EC50 [7]: 14.3 µM (active)

Compound: CC(OC(=O)/C(C#N)=C/c1ccc(N(C)C)cc1)C(=O)N(C)c1ccccc1 (stereo not drawn)
IC50 [8]: 40.3 µM (not active)
IC50 (Insulin-degrading enzyme): 21.4 µM (not active)
IC50 (Protein skinhead-1): > 100 µM (inactive)

IC50 [9]: > 50 µM (not active)
IC50 [10]: > 50 µM (not active)
Compound: CC1(C)Oc2ccc3ccc(=O)oc3c2-c2cnoc21

IC50 (Estrogen receptor beta): 0.0633 µM (not active)
Compound: CN(C)c1ccc(NC(=O)N2CCOCC2)cc1
